Data taken from ChEMBL document CHEMBL1201862, “PubChem BioAssay data set” (2004).
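Grown in 96-well plates, cells were treated for 48 hours with each compound at five concentrations. Insufficient inhibition: endpoint recorded as highest concentration tested. The concentration for 50% growth inhibition is given as GI50.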 Active and inactive are the calls of the source. No stated cut-off is given here; in the data, active = GI50 up to about 1.1 µM and inactive = higher.

Columns and labels:
Test in all cases: growth of human tumour cells (NCI), 48 h
[1] = system: UACC-62
[2] = system: OVCAR-3
[3] = system: Malme-3M
[4] = system: UACC-257
[5] = system: MOLT-4
[6] = system: RXF 393
[7] = system: HT-29
[8] = system: IGROV-1
[9] = system: 786-0
[10] = system: SR
[11] = system: SK-MEL-2
[12] = system: U-251
[13] = system: SNB-75
[14] = system: T47D
[15] = system: HCT-116
[16] = system: A498
[17] = system: SK-OV-3
[18] = system: EKVX
[19] = system: NCI/ADR-RES
[20] = system: PC-3

Measured: GI50

CC1(O)/C(=N/O)CC2CC1C2(C)C (stereo unspecified)
inactive: [1] > 100 µM | [2] > 100 µM | [3] > 100 µM | [4] > 100 µM | [5] > 100 µM | [6] > 100 µM | [7] > 100 µM | [8] > 100 µM | [9] > 100 µM | [10] > 10 µM | [11] > 100 µM | [12] > 100 µM | [13] > 100 µM | [14] > 100 µM

COc1ccc2c(c1)C(=O)c1ccc(OC)cc1C2=S
inactive: [1] 49.1 µM | [2] > 100 µM | [15] > 100 µM | [3] > 100 µM | [16] > 100 µM | [4] > 100 µM | [5] > 100 µM | [6] > 100 µM | [7] > 100 µM | [8] > 100 µM | [9] > 100 µM | [10] > 100 µM | [11] > 100 µM | [17] > 100 µM | [18] > 100 µM | [12] 24.4 µM | [13] 30.3 µM

Cc1cc(N(CCC#N)CCC#N)ccc1C(/N=N/c1ccc([N+](=O)[O-])cc1)=N\NC(=O)c1cc(Cl)ccc1C(=O)c1ccccc1
inactive: [1] 11.1 µM | [2] 4.86 µM | [15] 4.23 µM | [3] 13.2 µM | [4] 32.2 µM | [5] 4.65 µM | [6] 13 µM | [19] 12.2 µM | [7] 10.4 µM | [8] 3.56 µM | [9] 7.64 µM | [11] 11.1 µM | [20] 6.5 µM | [17] 13.5 µM | [18] 6.11 µM | [12] 13.3 µM | [13] 24.6 µM | [14] 5.18 µM

O=S(=O)(c1ccccc1)c1ccc(-c2nc(-c3ccc4c(c3)Sc3ccccc3S4)cs2)cc1
inactive: [1] 25.6 µM | [2] > 100 µM | [15] 73.3 µM | [3] 39.5 µM | [4] > 100 µM | [5] 31.6 µM | [6] 15.8 µM | [7] > 100 µM | [9] 17.2 µM | [10] 32.9 µM | [20] > 100 µM | [17] 18.9 µM | [18] 39.8 µM | [12] 27.9 µM | [13] 10.8 µM | [14] 61.8 µM

O=C(O)c1ccccc1Cc1ccco1
inactive: [1] > 100 µM | [2] > 100 µM | [15] > 100 µM | [3] > 100 µM | [16] > 100 µM | [4] > 100 µM | [5] > 100 µM | [6] > 100 µM | [7] > 100 µM | [8] > 100 µM | [9] > 100 µM | [10] > 100 µM | [11] > 100 µM | [17] > 100 µM | [18] > 100 µM | [12] > 100 µM | [13] > 100 µM

CN(c1ccccc1)C1C(=O)N(c2ccccc2)C1/C=C/c1ccccc1 (stereo unspecified)
inactive: [1] 72.6 µM | [2] > 100 µM | [15] > 100 µM | [3] > 100 µM | [16] 5.58 µM | [4] > 100 µM | [5] > 100 µM | [6] > 100 µM | [7] > 100 µM | [8] > 100 µM | [9] > 100 µM | [10] > 100 µM | [11] > 100 µM | [17] > 100 µM | [18] > 100 µM | [12] > 100 µM | [13] > 100 µM

CC(=O)ON(C(C)=O)C1C(COC(c2ccccc2)(c2ccccc2)c2ccccc2)OC2OC3(CCCC3)OC21 (stereo unspecified)
inactive: [1] > 42 µM | [2] 5.37 µM | [15] 5.45 µM | [3] > 89.7 µM | [16] 25.9 µM | [4] 11.6 µM | [5] 3.15 µM | [6] 4.44 µM | [7] > 26.6 µM | [8] > 100 µM | [9] 30.9 µM | [10] 3.2 µM | [11] 27.2 µM | [17] 5.53 µM | [18] 16.9 µM | [12] 6.47 µM | [13] 21.2 µM

CN(C)CN(C)c1nc(N(C)C)nc(N(C)C)n1
inactive: [1] > 100 µM | [2] > 100 µM | [15] > 100 µM | [3] > 100 µM | [16] > 100 µM | [4] > 100 µM | [5] > 100 µM | [6] 61.1 µM | [7] > 100 µM | [8] > 100 µM | [9] > 100 µM | [10] > 100 µM | [11] > 100 µM | [17] > 100 µM | [18] > 100 µM | [12] > 100 µM | [13] > 100 µM

Nc1ncnc2c1ncn2C1CCC(CP(=O)(O)O)C1 (stereo unspecified)
inactive: [1] > 100 µM | [2] > 100 µM | [15] > 100 µM | [3] > 100 µM | [4] > 100 µM | [6] > 100 µM | [19] > 100 µM | [7] > 100 µM | [8] > 100 µM | [9] > 100 µM | [11] > 100 µM | [20] > 100 µM | [17] > 100 µM | [18] > 100 µM | [12] > 100 µM | [14] > 100 µM

N#Cc1ccc(/C=N\N2C(=O)c3ccccc3C2=O)cc1
inactive: [1] > 100 µM | [2] > 100 µM | [15] > 100 µM | [3] > 100 µM | [16] > 100 µM | [4] > 100 µM | [5] > 100 µM | [6] > 100 µM | [7] > 100 µM | [8] > 100 µM | [9] > 100 µM | [10] > 100 µM | [11] > 100 µM | [18] > 100 µM | [13] > 100 µM

C/C(=N/N)c1sc(-c2nc(C)c(/C(C)=N\N)s2)nc1C
inactive: [1] > 92.7 µM | [2] > 100 µM | [15] > 100 µM | [3] > 100 µM | [16] > 100 µM | [4] > 100 µM | [5] 24.5 µM | [6] > 100 µM | [7] > 80.9 µM | [8] > 100 µM | [9] > 55.6 µM | [10] 16.4 µM | [11] > 100 µM | [17] > 100 µM | [18] > 100 µM | [12] > 100 µM | [13] > 100 µM

O=C1C=C(Nc2ccccc2C(=O)CC(=O)C(=O)Nc2ccc(Cl)cc2)c2ccccc2C1=O
inactive: [1] 13.3 µM | [2] 2.39 µM | [15] 6.18 µM | [3] 11.8 µM | [16] > 100 µM | [4] 8.83 µM | [5] 5.05 µM | [6] 11.5 µM | [7] 41.5 µM | [8] 27.4 µM | [9] 16.3 µM | [10] > 100 µM | [11] 17.2 µM | [17] 26.2 µM | [18] 32.4 µM | [12] 20.1 µM | [13] 17.1 µM

CCC(C)C(NC(=O)c1c2ccccc2nc2ccccc12)C(=O)O (stereo unspecified)
inactive: [1] > 100 µM | [2] > 100 µM | [15] > 100 µM | [3] 51.2 µM | [16] > 100 µM | [4] > 100 µM | [5] > 100 µM | [19] > 100 µM | [7] 75.9 µM | [8] 86.5 µM | [9] > 100 µM | [10] > 100 µM | [11] > 100 µM | [20] > 100 µM | [17] > 100 µM | [18] > 100 µM | [12] > 100 µM | [13] > 100 µM

Cc1cc(C)c(/C=N/NS(=O)(=O)c2ccccc2)c(C)c1
inactive: [1] > 100 µM | [2] 47.6 µM | [15] > 100 µM | [3] > 100 µM | [16] 56.1 µM | [4] 68.7 µM | [5] 44.7 µM | [6] 44.9 µM | [7] > 100 µM | [8] > 100 µM | [9] > 100 µM | [10] 31.4 µM | [11] > 100 µM | [17] > 100 µM | [18] 62.7 µM | [12] > 100 µM | [13] > 100 µM

COc1cc(=O)oc(/C=C/CO)c1C
inactive: [1] > 100 µM | [2] > 100 µM | [15] > 100 µM | [3] > 100 µM | [16] > 100 µM | [4] > 100 µM | [5] > 100 µM | [6] > 100 µM | [7] > 100 µM | [8] > 100 µM | [9] > 100 µM | [10] > 100 µM | [17] > 100 µM | [18] > 100 µM | [12] > 100 µM | [13] > 100 µM

O=C1OC(CC(=O)c2ccc(Cl)cc2Cl)C(Cl)=C1Cl (stereo unspecified)
inactive: [1] 17 µM | [2] 33.8 µM | [15] 18.2 µM | [3] 19.7 µM | [16] > 100 µM | [4] > 100 µM | [5] 24.8 µM | [6] 18.2 µM | [7] 18.7 µM | [8] > 41 µM | [9] 21.9 µM | [10] 26.5 µM | [11] 19.8 µM | [17] > 36.1 µM | [18] > 54.7 µM | [12] 27.6 µM | [13] > 43.7 µM
